# US9670211B2, “Aza-oxo-indoles for the treatment and prophylaxis of respiratory syncytial virus infection” (Hoffmann-La Roche Inc., priority 2013, dated 2017)
# Key:
# RSV infection = conditions: intramuscularly at 15 mg/kg once a month for the duration of RSV season, selected infants; cited from earlier work
# RSV Long strain = assay: Viral Cytopathic Effect (CPE) Assay; type: cell-based; conditions: human respiratory syncytial virus, 144 h; RSV Long strain (ATCC), cell viability after 6 days by Cell Counting kit-8
# Method: Viral Cytopathic Effect (CPE) Assay
# To measure anti-RSV activity of compounds, 96-well plates are seeded with 6×10^3 cells per well in Dulbecco's modified Eagle's medium (DMEM) containing 10% fetal bovine serum (FBS). Cells are infected the next day with sufficient RSV Long strain (ATCC) to produce an approximately 80-90% cytopathic effect after 6 days, in the presence of serial half-log diluted compound in a total volume of 200 μL per well. The viability of cells is assessed after 6 days using Cell Counting kit-8 (Dojindo Molecular Technologies). The absorbance at 450 nm and referenced at 630 nm is measured to determine 50% effective concentration (EC50).
Compound,reduction of hospitalization rate caused by RSV infection (RSV infection),EC50 (RSV Long strain) [nM]
palivizumab: humanized monoclonal antibody against RSV fusion (F) protein approved for prophylaxis in high-risk infants,45-55%,
"O=C1N(Cc2nc3cc(Cl)ccc3n2[C@H]2CCS(=O)(=O)C2)c2cnccc2C12CC2 [Example 3-2, 1′-({5-Chloro-1-[(3S)-1,1-dioxidotetrahydrothiophen-3-yl]-1H-benzimidazol-2-yl}methyl)spiro[cyclopropane-1,3′-pyrrolo[2,3-c]pyridin]-2′(1′H)-one]",,10
"C[C@]1(O)C[C@H](n2c(CN3C(=O)C4(CC4)c4ccncc43)nc3cc(Cl)ccc32)C1 [Example 2-17, 1′-{[5-Chloro-1-(trans-3-hydroxy-3-methylcyclobutyl)-1H-benzimidazol-2-yl]methyl}spiro[cyclopropane-1,3′-pyrrolo[2,3-c]pyridin]-2′(1′H)-one]",,5
"O=C1NCCC1n1c(CN2C(=O)C3(CC3)c3ccncc32)nc2cc(Cl)ccc21 (centres unmarked) [Example 2-9, 1′-{[5-Chloro-1-(2-oxopyrrolidin-3-yl)-1H-benzimidazol-2-yl]methyl}spiro[cyclopropane-1,3′-pyrrolo[2,3-c]pyridin]-2′(1′H)-one]",,164
"O=C1N(Cc2nc3cc(Cl)ccc3n2C2CCNCC2)c2cnccc2C12CC2 [Example 10-1, 1′-{[5-Chloro-1-(piperidin-4-yl)-1H-benzimidazol-2-yl]methyl}spiro[cyclopropane-1,3′-pyrrolo[2,3-c]pyridin]-2′(1′H)-one]",,78
"O=C1CCC(n2c(CN3C(=O)C4(CC4)c4ccncc43)nc3cc(Cl)ccc32)CN1 (centres unmarked) [Example 7-1, 1′-{[5-Chloro-1-(6-oxopiperidin-3-yl)-1H-benzimidazol-2-yl]methyl}spiro[cyclopropane-1,3′-pyrrolo[2,3-c]pyridin]-2′(1′H)-one]",,2
"CC(C)C(=O)N1CC[C@@H](n2c(CN3C(=O)C4(CC4)c4ccncc43)nc3cc(Cl)ccc32)C1 [Example 11, 1′-({5-Chloro-1-[(3R)-1-(2-methylpropanoyl)pyrrolidin-3-yl]-1H-benzimidazol-2-yl}methyl)spiro[cyclopropane-1,3′-pyrrolo[2,3-c]pyridin]-2′(1′H)-one]",,3
"CS(=O)(=O)[C@H]1C[C@@H](n2c(CN3C(=O)C4(CC4)c4ccncc43)nc3cc(Cl)ccc32)C1 [Example 1-1, 1′-({5-Chloro-1-[cis-3-(methylsulfonyl)cyclobutyl]-1H-benzimidazol-2-yl}methyl)spiro[cyclopropane-1,3′-pyrrolo[2,3-c]pyridin]-2′(1′H)-one]",,10
"O=C1N(Cc2nc3cc(Cl)ccc3n2C2CCOC2)c2cnccc2C12CC2 (centres unmarked) [Example 2-14, 1′-{[5-Chloro-1-(tetrahydrofuran-3-yl)-1H-benzimidazol-2-yl]methyl}spiro[cyclopropane-1,3′-pyrrolo[2,3-c]pyridin]-2′(1′H)-one]",,6
"O=C1CC(n2c(CN3C(=O)C4(CC4)c4ccncc43)nc3cc(Cl)ccc32)CCN1 (centres unmarked) [Example 2-10, 1′-{[5-Chloro-1-(2-oxopiperidin-4-yl)-1H-benzimidazol-2-yl]methyl}spiro[cyclopropane-1,3′-pyrrolo[2,3-c]pyridin]-2′(1′H)-one]",,5
"O=C1N(Cc2nc3cc(Cl)ccc3n2C2CC(F)(F)C2)c2cnccc2C12CC2 [Example 2-5, 1′-{[5-Chloro-1-(3,3-difluorocyclobutyl)-1H-benzimidazol-2-yl]methyl}spiro[cyclopropane-1,3′-pyrrolo[2,3-c]pyridin]-2′(1′H)-one]",,16
"O=C1N(Cc2nc3cc(Cl)ccc3n2C2CCS(=O)(=O)CC2)c2cnccc2C12CC2 [Example 2-2, 1′-{[5-Chloro-1-(1,1-dioxidotetrahydro-2H-thiopyran-4-yl)-1H-benzimidazol-2-yl]methyl}spiro[cyclopropane-1,3′-pyrrolo[2,3-c]pyridin]-2′(1′H)-one]",,6
"O=C1N(Cc2nc3cc(Cl)ccc3n2C2CCC(F)(F)C2)c2cnccc2C12CC2 (centres unmarked) [Example 2-11, 1′-{[5-Chloro-1-(3,3-difluorocyclopentyl)-1H-benzimidazol-2-yl]methyl}spiro[cyclopropane-1,3′-pyrrolo[2,3-c]pyridin]-2′(1′H)-one]",,17
"CN1CC(n2c(CN3C(=O)C4(CC4)c4ccncc43)nc3cc(Cl)ccc32)CC1=O (centres unmarked) [Example 8-1, 1′-{[5-Chloro-1-(1-methyl-5-oxopyrrolidin-3-yl)-1H-benzimidazol-2-yl]methyl}spiro[cyclopropane-1,3′-pyrrolo[2,3-c]pyridin]-2′(1′H)-one]",,6
"O=C1N(Cc2cc3cc(Cl)ccc3n2C2CCS(=O)(=O)C2)c2cnccc2C12CC2 (centres unmarked) [Example 18, 1′-{[5-Chloro-1-(1,1-dioxidotetrahydrothiophen-3-yl)-1H-indol-2-yl]methyl}spiro[cyclopropane-1,3′-pyrrolo[2,3-c]pyridin]-2′(1′H)-one]",,1.9
"O=C1CC(n2c(CN3C(=O)C4(CC4)c4ccncc43)nc3cc(Cl)ccc32)CN1 (centres unmarked) [Example 7-2, 1′-{[5-Chloro-1-(5-oxopyrrolidin-3-yl)-1H-benzimidazol-2-yl]methyl}spiro[cyclopropane-1,3′-pyrrolo[2,3-c]pyridin]-2′(1′H)-one]",,9
"O=C1N(Cc2nc3cc(Cl)ccc3n2C2CCC(O)C2)c2cnccc2C12CC2 (centres unmarked) [Example 2-8, 1′-{[5-Chloro-1-(3-hydroxycyclopentyl)-1H-benzimidazol-2-yl]methyl}spiro[cyclopropane-1,3′-pyrrolo[2,3-c]pyridin]-2′(1′H)-one]",,11
